What was measured:
[1] = tested on: epidermal hyperplasia in mice induced by the application of TPA; assay: TPA-induced epidermal hyperplasia in mouse dorsal skin; type: in vivo; conditions: male BALB/c mice; applied to skin 5 min, 24 h and 48 h after TPA; doses 1, 10, 100 μg; skin excised at 72 h; FIG. 1
Protocol: After backs of male BALB/c mice were shaved, 10 μL of a TPA-acetone solution (0.1 mM) was applied to the dorsal skin surface in an area of about 1 cm^2. In the medicine-treated group, a volume of 20 μL of a solution prepared by dissolving the test compound in acetone was applied to the same area 5 minutes, 24 hours and 48 hours after TPA application. In the non-treated group, only TPA was applied. In the control group, acetone was applied instead of the TPA-acetone solution.
The mice were sacrificed and the skin tissues were excised 72 hours after TPA application. Then the tissues were fixed with formalin, the vertical sections including the center of the TPA- or acetone-treated area were prepared and embedded in paraffin according to the conventional method. And they were stained by hematoxylin-eosin after removing paraffin. The epidermal thickness was measured using a microscope.
In FIG. 1, the numeral in the ordinate represents the epidermal thickness (μm). A bar graph of TPA (−) represents the epidermal thickness of the control group and a bar graph of TPA represents the epidermal thickness of the non-treated group. The respective bar graphs of 1, 10 and 100 denote the epidermal thickness of the group wherein the test compound is administered at a dose of 1, 10 and 100 (μg/wound) of each test compound. […]

[2] = tested on: re-epithelialization of keratinocytes, mouse skin wound model; assay: Mouse skin wound healing model, re-epithelialization of keratinocytes; type: in vivo; conditions: male BALB/c mice; 6 mm full-thickness wounds; applied once a day; assessed eight days after operation; FIG. 2
Protocol: Wound healing model was prepared in accordance with the method described by Tsuboi, et al. (J. Dermatol., 19, 673–675 (1992)). After backs of male BALB/c mice were shaved, two full-thickness round wounds (6 mm diameter) were prepared on the back of each mouse using a punch biopsy instrument. In medicine-treated group, immediately after the operation, a test compound suspended in 0.01M phosphate-buffered saline containing 1.5% sodium carboxymethyl cellulose (vehicle) was applied to each wound in a volume of 50 μL/wound. From the following day, the compound was repeatedly applied to each wound once a day for 7 days. In the control group, vehicle solution only was applied in the same manner. Eight days after the operation, mice were sacrificed and skin tissues containing wound area were removed. The tissues were fixed with a 10% neutral buffer formalin solution for one day and embedded in paraffin according to the conventional method. The cross-sections were made perpendicularly to the anterior-posterior axis. Keratinocytes in the specimen were stained by immuno histochemical staining method with an anti-keratin antibody after removing paraffin. Measurements of wound size (mm) and re-epithelialization of keratinocytes (mm) were performed by using an image-analyzing software. Re-epithelialization rate(%) of keratinocytes was calculated as follows with regard to each animal. […]

## O=C(NO)[C@H]1[C@@H](O)[C@H](O)[C@@H](O)CN1S(=O)(=O)c1ccc(Oc2ccccc2)cc1 [Compound c, (2R,3R,4R,5S)-3,4,5-trihydroxy-1-(4′-phenoxybenzenesulfonyl)-piperidine-2-carboxylic Acid Hydroxamide]
[1]
  hyperplasia inhibitory activity (epidermal thickness): hyperplasia inhibitory activity
[2]
  re-epithelialization rate (%) of keratinocytes inhibitory activity: inhibitory activity
